Source: the NIST ThermoML archive (doi:10.1016/j.tca.2013.09.017)
Numbers after ± are expanded uncertainties.

How the values were obtained:
[1] = mn = molality of the nth substance listed, in mol/kg; conditions: 298.15 K, 101 kPa, Liquid; for speed of sound: Sing-around technique in a fixed-path interferometer; for mass density: Vibrating tube method
[2] = 298.15 K, 101.33 kPa, Liquid

CN1CCCC1=O [N-methylpyrrolidone] + CCCCO
[1]
Conditions	mass density [kg/m3]	speed of sound [m/s]
m1 = 0.0846	807.27 ± 0.15	1243 ± 1
m1 = 0.1506	808.43 ± 0.15	1244.6 ± 1
m1 = 0.23	809.82 ± 0.15	1245.8 ± 1
m1 = 0.2953	810.94 ± 0.14	1247.7 ± 1
m1 = 0.3712	812.24 ± 0.14	1249.6 ± 1

CCC(=O)N(C)C [N,N-dimethylpropionamide] + CCCCCCC
[1]
Conditions	mass density [kg/m3]	speed of sound [m/s]
m1 = 0.0487	680.32 ± 0.21	1132.3 ± 0.9
m1 = 0.1515	681.98 ± 0.21	1133.4 ± 0.9
m1 = 0.2686	683.9 ± 0.21	1135.1 ± 0.9
m1 = 0.3627	685.47 ± 0.2	1136.2 ± 0.9
m1 = 0.4628	687.09 ± 0.2	1137.5 ± 0.9

CCC(=O)N(C)C [N,N-dimethylpropionamide] + CCCCO
[1]
Conditions	mass density [kg/m3]	speed of sound [m/s]
m1 = 0.0494	806.25 ± 0.15	1241.7 ± 1
m1 = 0.1311	807.08 ± 0.15	1243.2 ± 1
m1 = 0.21	807.88 ± 0.15	1244.6 ± 1
m1 = 0.2899	808.68 ± 0.15	1246.1 ± 1
m1 = 0.3702	809.48 ± 0.15	1247.5 ± 1

CN1CCCC1=O [N-methylpyrrolidone] + CO
[1]
Conditions	mass density [kg/m3]	speed of sound [m/s]
m1 = 0.0786	788.33 ± 0.16	1106.3 ± 0.9
m1 = 0.1588	789.97 ± 0.15	1109 ± 0.9
m1 = 0.2275	791.35 ± 0.15	1111.2 ± 0.9
m1 = 0.3082	792.96 ± 0.15	1114 ± 0.9
m1 = 0.3854	794.5 ± 0.15	1116.6 ± 0.9

CO [methanol]
[2]
Conditions	mass density [kg/m3]	speed of sound [m/s]
Sing-around technique in a fixed-path interferometer	–	1103.4 ± 0.91
Vibrating tube method	786.66 ± 0.16	–

CN1CCCC1=O [N-methylpyrrolidone] + CCO
[1]
Conditions	mass density [kg/m3]	speed of sound [m/s]
m1 = 0.077	786.74 ± 0.16	1146.8 ± 0.9
m1 = 0.1554	788.32 ± 0.16	1149.3 ± 0.9
m1 = 0.2349	789.86 ± 0.15	1151.9 ± 0.9
m1 = 0.3089	791.28 ± 0.15	1154 ± 0.9
m1 = 0.388	792.78 ± 0.15	1156.5 ± 0.9

CN1CCCC1=O [N-methylpyrrolidone] + C1CCCCC1
[1]
Conditions	mass density [kg/m3]	speed of sound [m/s]
m1 = 0.0792	774.81 ± 0.16	1256 ± 1
m1 = 0.1648	776.26 ± 0.16	1256.8 ± 1
m1 = 0.2385	777.5 ± 0.16	1257.6 ± 1
m1 = 0.3142	778.77 ± 0.16	1258.3 ± 1
m1 = 0.3925	780.08 ± 0.16	1258.7 ± 1

CCC(=O)N(C)C [N,N-dimethylpropionamide] + C1CCCCC1
[1]
Conditions	mass density [kg/m3]	speed of sound [m/s]
m1 = 0.05	773.91 ± 0.16	1254.7 ± 1
m1 = 0.1518	774.79 ± 0.16	1254.7 ± 1
m1 = 0.2497	775.68 ± 0.16	1254.8 ± 1
m1 = 0.355	776.64 ± 0.16	1254.9 ± 1
m1 = 0.4496	777.52 ± 0.16	1255 ± 1

CN1CCCC1=O [N-methylpyrrolidone] + CCCCCCC
[1]
Conditions	mass density [kg/m3]	speed of sound [m/s]
m1 = 0.0859	681.45 ± 0.21	1133.1 ± 0.9
m1 = 0.1879	683.75 ± 0.21	1135 ± 0.9
m1 = 0.2695	685.56 ± 0.2	1136.4 ± 0.9
m1 = 0.3576	687.51 ± 0.2	1137.7 ± 0.9
m1 = 0.4488	689.49 ± 0.2	1139.2 ± 0.9
